“And” between values parts separate entries of the source, which are not always exact repeats. Equal values may be shown once.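 96-well plates; 48 h exposure; 5 concentrations. Endpoints by linear interpolation between flanking doses. Not reached: highest tested concentration assigned. GI50 marks 50% less growth. TGI: total growth inhibition.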
Experiments:
Assay in all cases: NCI tumour cell line growth inhibition, 48 h
[1] = test system: T-47D breast
[2] = test system: MCF7 breast
[3] = test system: RPMI-8226 leukemia
[4] = test system: NCI-H522 lung
[5] = test system: HOP-62 NSCLC
[6] = test system: HCT-15 colon
[7] = test system: DU-145 prostate
[8] = test system: A549 NSCLC
[9] = test system: MDA-MB-231 breast
[10] = test system: UACC-257 melanoma

COc1ccc(OC)c(/C=C/[N+](=O)[O-])c1
TGI [1]: 46.8 µM
TGI [2]: 8.64 µM
GI50 [3]: 1.74 µM
TGI [3]: 4.42 µM and 4.74 µM
TGI [4]: 2.96 µM and 4.78 µM
TGI [5]: 8.27 µM and 9.56 µM
TGI [6]: 17.1 µM and 6.73 µM
GI50 [7]: 2.57 µM
TGI [7]: 8.37 µM and 10.5 µM
GI50 [8]: 2.85 µM
TGI [8]: 15.4 µM and 13.6 µM
TGI [9]: 5.32 µM
GI50 [10]: 3.19 µM
TGI [10]: 11.7 µM and 8.28 µM

O=C(NNc1nc2cc(F)ccc2n2c(CN3CCOCC3)ccc12)c1ccccc1
GI50 [1]: 0.36 µM
TGI [1]: 2.24 µM
GI50 [2]: 219 nM
TGI [2]: 1.31 µM
GI50 [3]: 0.263 µM
TGI [3]: 2.6 µM
GI50 [4]: 0.369 µM
TGI [4]: 3.52 µM
GI50 [5]: 0.117 µM
TGI [5]: 4.03 µM
GI50 [6]: 0.0577 µM
TGI [6]: 1.41 µM
GI50 [7]: 0.358 µM
TGI [7]: 4.78 µM
GI50 [8]: 0.303 µM
TGI [8]: 2.25 µM
GI50 [9]: 0.443 µM
TGI [9]: 2.45 µM
GI50 [10]: 0.456 µM
TGI [10]: 3.85 µM

COc1ccc(/C=C2/CN(C(=O)c3ccccc3F)C/C(=C\c3ccc(OC)cc3)C2=O)cc1
GI50 [1]: 5.65 µM
TGI [1]: 76.2 µM
GI50 [2]: 543 nM
TGI [2]: 3.56 µM
GI50 [3]: 0.242 µM
TGI [3]: 0.714 µM
GI50 [4]: 4.2 µM
TGI [4]: 15 µM
GI50 [5]: 3.77 µM
TGI [5]: 14.6 µM
GI50 [6]: 2.05 µM
TGI [6]: 6.62 µM
GI50 [7]: 7.47 µM
TGI [7]: 23.9 µM
GI50 [8]: 4.83 µM
TGI [8]: 34.3 µM
GI50 [9]: 2.88 µM
TGI [9]: 9.04 µM
GI50 [10]: 3.24 µM
TGI [10]: 13.3 µM

CN(C(=O)c1ccc(F)cc1C(F)(F)F)C1CCN(c2nnc(-c3ccnn3C)c3ccccc23)CC1
GI50 [1]: 10.6 µM
TGI [1]: 99.4 µM
GI50 [2]: 24200 nM
TGI [2]: > 100 µM
GI50 [3]: 19.1 µM
TGI [3]: > 100 µM
GI50 [4]: 16.2 µM
TGI [4]: > 100 µM
GI50 [5]: 65.1 µM
TGI [5]: > 100 µM
GI50 [6]: 39.9 µM
TGI [6]: > 100 µM
GI50 [7]: 75.4 µM
TGI [7]: > 100 µM
GI50 [8]: 41 µM
TGI [8]: > 100 µM
GI50 [9]: 37.8 µM
TGI [9]: > 100 µM
GI50 [10]: 23.2 µM
TGI [10]: > 100 µM

Cc1nc2sc(C(=O)Nc3cccc4ccccc34)c(N)c2cc1C(C)O (stereo unspecified)
GI50 [1]: 0.183 µM
TGI [1]: > 50 µM
GI50 [2]: 170 nM
TGI [2]: > 50 µM
GI50 [3]: 0.223 µM
TGI [3]: > 50 µM
GI50 [4]: 0.207 µM
TGI [4]: > 22.4 µM
GI50 [5]: 0.244 µM
TGI [5]: > 50 µM
GI50 [6]: 0.189 µM
TGI [6]: > 50 µM
GI50 [7]: 0.247 µM
TGI [7]: > 50 µM
GI50 [8]: 0.345 µM
TGI [8]: > 50 µM
GI50 [9]: 0.751 µM
TGI [9]: > 50 µM
GI50 [10]: > 50 µM
TGI [10]: > 50 µM

O=C1OCC(c2ccc(O)c(O)c2)=C1c1cc(O)c(O)c(O)c1
GI50 [1]: 23.2 µM
TGI [1]: 60.2 µM
GI50 [2]: 36900 nM
TGI [2]: > 100 µM
GI50 [3]: 26.2 µM
TGI [3]: 79 µM
GI50 [4]: 47.4 µM
TGI [4]: > 100 µM
GI50 [5]: 18.5 µM
TGI [5]: 33.3 µM
GI50 [6]: 19.3 µM
TGI [6]: 44.1 µM
GI50 [7]: 32.7 µM
TGI [7]: > 100 µM
GI50 [8]: 21.6 µM
TGI [8]: 76 µM
GI50 [9]: 15.2 µM
TGI [9]: 31 µM
GI50 [10]: 93.8 µM
TGI [10]: > 100 µM

O=C(Cn1ccnc1[N+](=O)[O-])N(CCO)CCO
TGI [1]: > 250 µM
GI50 [2]: > 250000 nM
TGI [2]: > 1250 µM
GI50 [3]: > 1250 µM
TGI [3]: 250 µM and > 1250 µM
GI50 [4]: > 1250 µM
TGI [4]: > 1250 µM
GI50 [5]: 22.3 µM
TGI [5]: > 250 µM
GI50 [6]: > 1250 µM
TGI [6]: > 1250 µM
TGI [7]: > 250 µM
GI50 [8]: > 1250 µM
TGI [8]: > 1250 µM
TGI [9]: > 250 µM
GI50 [10]: > 1250 µM
TGI [10]: > 1250 µM

CCOc1ccc(NC(=O)Nc2cc(C(C)C)ccc2C)cc1
GI50 [1]: 8.94 µM
TGI [1]: > 100 µM
GI50 [2]: 11800 nM
TGI [2]: > 57.8 µM
GI50 [3]: 10.9 µM
TGI [3]: > 65.8 µM
GI50 [4]: 9.53 µM
TGI [4]: 78.3 µM
GI50 [5]: 8.78 µM
TGI [5]: 22.8 µM
GI50 [6]: 28.7 µM
TGI [6]: > 100 µM
GI50 [7]: 9.57 µM
TGI [7]: > 58.4 µM
GI50 [8]: 4.56 µM
TGI [8]: 17.6 µM
GI50 [9]: 3.79 µM
TGI [9]: 15.8 µM
GI50 [10]: 8.83 µM
TGI [10]: 44.9 µM

C[C@@H]1O[C@@H](O[C@H]2C[C@@H](O)[C@]3(CO)C4C(CC[C@]3(O)C2)[C@@]2(O)CC[C@H](C3=CC(=O)OC3)[C@@]2(C)C[C@H]4O)[C@H](O)[C@H](O)[C@H]1O (stereo partly specified)
GI50 [1]: 0.0215 µM
TGI [1]: 0.0847 µM
GI50 [2]: 24.4 nM
TGI [2]: 0.121 µM
GI50 [3]: 0.0672 µM
TGI [3]: 1.76 µM
GI50 [4]: 0.0117 µM
TGI [4]: 0.0323 µM
GI50 [5]: 0.0137 µM
TGI [5]: 0.0385 µM
GI50 [6]: 0.0372 µM
TGI [6]: 0.114 µM
GI50 [7]: 0.0104 µM
TGI [7]: 0.02 µM
GI50 [8]: 0.00907 µM
TGI [8]: 0.0172 µM
GI50 [9]: 0.111 µM
TGI [9]: 0.286 µM
GI50 [10]: 0.0626 µM
TGI [10]: 0.129 µM

O=C(c1ccccc1)c1ccc(-c2ccc(O)cc2)cc1
GI50 [1]: 3.75 µM
TGI [1]: 35.6 µM
GI50 [2]: 340 nM
TGI [2]: 25.2 µM
GI50 [3]: 2.7 µM
TGI [3]: 18.3 µM
GI50 [4]: 1.66 µM
TGI [4]: 8.47 µM
GI50 [5]: 7.08 µM
TGI [5]: 25.9 µM
GI50 [6]: 5 µM
TGI [6]: 27.7 µM
GI50 [7]: 5.62 µM
TGI [7]: 29.4 µM
GI50 [8]: 3.9 µM
TGI [8]: > 65.3 µM
GI50 [9]: 6.08 µM
TGI [9]: 37.6 µM
GI50 [10]: 16 µM
TGI [10]: 66.5 µM

Cn1ncc2cc(-c3cnc(N)c(Cl)c3N3CCC4(CCNC4=O)CC3)ccc21
GI50 [1]: 15.7 µM
TGI [1]: 84.2 µM
GI50 [2]: 24600 nM
TGI [2]: > 100 µM
GI50 [3]: 16 µM
TGI [3]: 95.5 µM
GI50 [4]: 60.7 µM
TGI [4]: > 100 µM
GI50 [5]: 21.6 µM
TGI [5]: > 100 µM
GI50 [6]: 22.7 µM
TGI [6]: > 100 µM
GI50 [7]: 52.1 µM
TGI [7]: > 100 µM
GI50 [8]: > 100 µM
TGI [8]: > 100 µM
GI50 [9]: 23 µM
TGI [9]: 86.3 µM
GI50 [10]: 31.2 µM
TGI [10]: 66.1 µM

O=C1Nc2ccc(F)c3c(OCCO)cc(-c4ccc[nH]4)c1c23
GI50 [1]: 0.513 µM
TGI [1]: 1.52 µM
GI50 [2]: 810 nM
TGI [2]: 10.9 µM
GI50 [3]: 1.82 µM
TGI [3]: 8.18 µM
GI50 [4]: 2.12 µM
TGI [4]: 11.6 µM
GI50 [5]: 3.07 µM
TGI [5]: 13.8 µM
GI50 [6]: 0.957 µM
TGI [6]: 7.87 µM
GI50 [7]: 1.97 µM
TGI [7]: 10.3 µM
GI50 [8]: 1.21 µM
TGI [8]: 8.57 µM
GI50 [9]: 2.03 µM
TGI [9]: 9.53 µM
GI50 [10]: 4.94 µM
TGI [10]: 17.9 µM

Source: PubChem BioAssay (NCI)
